Values quoted from earlier work, collected in US20050070607A1, “N-acetylcysteine compositions and methods for the treatment and prevention of cysteine/glutathione deficiency in diseases and conditions” (priority 2003, published 2005).
Read-outs that look alike come from different tables or passages of the source.

Experiments:
[1] = system: patients with unstable angina pectoris
[2] = system: subjects with acetaminophen-induced fulminant hepatic failure; conditions: late presentation; survival, cerebral edema, hypotension; IV 150 mg/kg for 15 min; 50 mg/kg for 4 h; 100 mg/kg over 16 h; n 50; 21 days; Keays 1991[2]
Alzheimer's Disease = conditions: MMSE, ADL and other psychometric tests; 50 mg/kg/day; n 47; 24 weeks; Adair 2001[60]
[3] = compared with the stable cysteine disulfide
plaque formation = conditions: 2 weeks, Bowles 1985[61]
Hyperoxic ventilation = conditions: whole body oxygen uptake, oxygen extraction ratio, gastric intramucosal pH; IV over 15 min; n 38; 72 hours; Reinhart 1995[266]
[4] = system: Stable angina and nitrate tolerance

SMILES: CC(=O)N[C@@H](CS)C(=O)O [NAC, N-acetylcysteine]
- Beneficial effects (Bronchitis; General Health Questionnaire score, mild chronic bronchitis, 1200 mg/day po, n 153, 22 weeks, Hansen 1994[34]): Beneficial
- Beneficial effects (Bronchitis; days incapacitated, 600 mg/day po, n 526, 6 months, Parr and Huitson 1987[31]): Beneficial
- Beneficial effects (Bronchitis; difficulty in expectoration and cough severity, 600 mg/day po, n 155, 3 months, Jackson 1984[30]): Beneficial
- Beneficial effects (Bronchitis; evening peak flows after NAC pre-treatment, 1200 mg/day po, n 37, 22 weeks, Evald 1989[33]): Beneficial
- Beneficial effects (Bronchitis; exacerbation rate, 400 mg/day po, n 259, 6 months, Boman 1983[29]): Beneficial
- Beneficial effects (Bronchitis; frequency of exacerbations, 600 mg/day, 3 days/wk, po, n 69, 6 months, Grassi and Morandini 1976[24]): Beneficial
- Beneficial effects (Bronchitis; sick-leave days caused by exacerbations, 600 mg/day po, n 116, 6 months, Rasmussen and Glennow 1988[32]): Beneficial
- Beneficial effects (Bronchitis; sputum consistency, expectoration, peak expiratory flow rate, 600 mg/day po, n 29, 4 weeks, Aylward 1980[25]): Beneficial
- Beneficial effects (Bronchitis; sputum thickness, expectoration, exacerbations, 400 mg/day po, n 744, 6 months, Grassi 1980, Ferrari 1980[27,28]): Beneficial
- Beneficial effects (Bronchitis; sputum volume and viscosity, acute and chronic bronchitis, 600 mg/day po, n 215, 10 days, Brocard 1980[26]): Beneficial
- Beneficial effects (HIV infected individuals; CD4 counts > 200/ul, plasma cysteine, rate of CD4 decline, 800 mg/day po, n 45, 4 months, Akerlund 1996[47]): Beneficial
- Beneficial effects (HIV infected individuals; beginning of antiretroviral therapy, hematocrit, CD4 cell count, 600 mg/day, n 20, 180 days, Spada 2002[227]): Beneficial
- Beneficial effects (HIV infected individuals; immune function, 0.6-3.6 g depending on GSH levels po, n 69, 7 months, Breitkreutz 2000[50]): Beneficial
- adverse events, highest reported long-term NAC dosage (HIV infected individuals; in vivo): No adverse events requiring physician intervention
- Beneficial effects (HIV infected individuals; whole blood GSH and T cell GSH, 3,200-8,000 mg/day po, n 81, 8 weeks, De Rosa 2000, Herzenberg 1997[48,49]): Beneficial
- Beneficial effects (COPD subjects; hydrogen peroxide formation in the airways, oral 600 mg fizzy, n 44, 12 months, Kasielski 2001[210]): Beneficial
- Beneficial effects (COPD subjects; mucus viscosity, effective cough, clinical symptoms, 600 mg, n 60, 10 days, Verstraeten 1979[39]): Beneficial
- Beneficial effects (COPD subjects; quadriceps endurance, exercise induced oxidative stress, 1800 mg for 4 days and 600 mg the day of the test, n 9, Koechlin 2004[278]): Beneficial
- Beneficial effects ([1]; NAC + nitroglycerin, incidence of acute myocardial infarction, 5 g IV, n 46, 6 hours, Horowitz 1988[175,176]): Beneficial
- Beneficial effects ([1]; nitroglycerin + NAC with conventional therapy, outcome events, 600 mg po, n 200, 4 months, Ardissino 1997[177]): Beneficial
- Treatment effect [2]: Beneficial
- Beneficial effects (Smoking; formation of lipophilic-DNA adducts, 1200 mg/day po, n 41, 6 months, VanShooten 2002[35]): Beneficial
- Beneficial effects (Smoking; mucus clearance, 600 mg/day, n 12, 30 days, Olivieri 1985[36]): Beneficial
- Beneficial effects (Alzheimer's Disease): Beneficial
- Beneficial effects (Cystic Fibrosis (CF); CF and primary ciliary dyskinesia, lung function, 600 mg < 30 kg or 800 mg > 30 kg per day po, n 54, 3 months, Stafanger 1988[40]): Beneficial
- Beneficial effects (Cystic Fibrosis (CF); air trapping and FEV1, NAC or Ambroxol 200 mg 3 times daily, n 36, 12 weeks, Ratjen 1985[274]): Beneficial
- solubility relative to cystine [3]: much more soluble
- reduction on plaque attributable to NAC (plaque formation; p < .001, 10% aqueous solution): 25.56% reduction on plaque attributable to
- Beneficial effects (plaque formation; plaque indices, 10% aqueous solution of NAC buffered to pH 6.5, n 28): Beneficial
- RR, composite cardiovascular outcome (hemodialysis patients; 134 chronic hemodialysis patients, p=0.03, [17]): 0.60
- Beneficial effects (hemodialysis patients; Homocysteine in hemodialysis, intravenous 5 g in 5% glucose solution, n 20, 1 session, Scholze 2004[273]): Beneficial
- serum oxidized LDL values at the end of the study (hemodialysis patients; chronic hemodialysis patients [17]): much lower
- Plasma homocysteine level change (hemodialysis patients; chronic oral 1200 mg BID, 4 weeks, placebo −8%, P = 0.07, Friedman 2003[276]): chronic oral NAC therapy (−19%) but did
- Beneficial effects (hemodialysis patients; composite cardiovascular end points, 600 mg bid, n 134, 1-24 months, median 14.5 months, Tepel 2003[17]): Beneficial
- Plasma homocysteine level after hemodialysis (hemodialysis patients; control group 58 +/− 22%, P < 0.01, intravenous 5 g, Scholze 2004[273]): homocysteine levels decreased to 12 +/− 7% of predialysis level (mean +
- Beneficial effects (hemodialysis patients; end-stage renal failure, plasma homocysteine, pulse pressure, endothelial function, 5 g in 5% glucose, n 20, Scholze 2004[273]): Beneficial
- Treatment effect (Hyperoxic ventilation): Beneficial
- Beneficial effects ([4]; NAC + ISDN infusion, tolerance to antianginal effects, 2 g IV bolus, n 10, 30 hours, Boesgaard 1992[14]): Beneficial
- Beneficial effects ([4]; NAC + isosorbide dinitrate (ISDN), ST segment depression, 2400 mg daily po, n 7, 8 days, Boesgaard 1991[13]): Beneficial
- Beneficial effects ([4]; NAC + isosorbide-5-mononitrate, total exercise time, 4800 mg po, n 10, 24 hours, Svendsen 1989[12]): Beneficial
